Test results: patent US8993564B2, “7-azaindole derivatives suitable for treatment of cancers” (Merck Patent GmbH, priority 2011, dated 2015)

Test system: not given
Experiment: not given
Settings: not given

Row | melting point [°C] | Structure (SMILES)
1 | 274 to 275 | CCOc1ccccc1Nc1nnc(-c2c[nH]c3ncc(-c4cnn(C)c4)cc23)o1 [Compound 62, (2-Ethoxyphenyl)-{5-[5-(1-methyl-1H-pyrazol-4-yl)-1H-pyrrolo[2,3-b]-pyridin-3-yl]-1,3,4-oxadiazol-2-yl}-amine]
2 | 281 to 283 | Cn1cc(-c2cnc3[nH]cc(-c4nnc(NCc5ccc6c(c5)OCO6)o4)c3c2)cn1 [Compound 82, Benzo-1,3-dioxol-5-ylmethyl-{5-[5-(1-methyl-1H-pyrazol-4-yl)-1H-pyrrolo[2,3-b]pyridin-3-yl]-1,3,4-oxadiazol-2-yl}amine]
3 | 324 to 326 | Cn1cc(-c2cnc3[nH]cc(-c4nnc(Nc5ccccc5)o4)c3c2)cn1 [Compound 75, {5-[5-(1-Methyl-1H-pyrazol-4-yl)-1H-pyrrolo[2,3-b]pyridin-3-yl]-1,3,4-oxadiazol-2-yl}phenylamine]
4 | 295 to 297 | Cn1cc(-c2cnc3[nH]cc(-c4nnc(Nc5ccccc5F)o4)c3c2)cn1 [Compound 60]
5 | 253 to 254 | COc1ccccc1CNc1nnc(-c2c[nH]c3ncc(-c4cnn(C)c4)cc23)o1 [Compound 63, (2-Methoxybenzyl)-{5-[5-(1-methyl-1H-pyrazol-4-yl)-1H-pyrrolo[2,3-b]-pyridin-3-yl]-1,3,4-oxadiazol-2-yl}-amine]

Biological target: T1, PDK1 (Homo sapiens, UniProt O15530)
T1 construct: His6 (N)
T1 sequence (O15530 51-556 limits assumed): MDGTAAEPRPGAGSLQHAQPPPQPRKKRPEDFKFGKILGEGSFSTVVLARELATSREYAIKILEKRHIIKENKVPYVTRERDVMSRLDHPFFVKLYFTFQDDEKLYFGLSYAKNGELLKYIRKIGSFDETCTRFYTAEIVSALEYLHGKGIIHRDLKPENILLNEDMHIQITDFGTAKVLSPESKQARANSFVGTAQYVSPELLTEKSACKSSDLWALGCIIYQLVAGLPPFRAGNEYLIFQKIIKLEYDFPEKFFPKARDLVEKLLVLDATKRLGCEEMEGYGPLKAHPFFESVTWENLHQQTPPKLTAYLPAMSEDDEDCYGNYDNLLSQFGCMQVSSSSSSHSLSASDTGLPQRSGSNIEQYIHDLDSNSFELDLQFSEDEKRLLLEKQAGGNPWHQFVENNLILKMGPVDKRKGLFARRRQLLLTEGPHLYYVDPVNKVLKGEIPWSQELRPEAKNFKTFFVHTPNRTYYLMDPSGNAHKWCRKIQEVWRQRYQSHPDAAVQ
Experiment: Test for the inhibition of PDK1 (flashplate, 33P-ATP), enzymatic
Assay type: biochemical
Settings: prior art compounds vs compounds according to the invention
Experimental: 4.0 Test for the Inhibition of PDK1
The experimental batches are carried out in a flashplate system with 384 wells/microtitration plate.
In each case, the PDK1 sample His6-PDK1(1-50)(3.4 nM), the PDK1 substrate biotin-bA-bA-[…] (400 nM), 4 μM ATP (with 0.2 μCi of ^33P-ATP/well) and the test substance in 50 μl of conventional experimental solution per well are incubated at 30° C. for 60 min. The test substances are employed in corresponding concentrations (if desired in a dilution series). The control is carried out without test substance. The reaction is stopped using standard methods and washed. The activity of the kinase is measured via the incorporated radioactivity in top count. In order to determine the non-specific kinase reaction (blank value), the experimental batches are carried out in the presence of 100 nM staurosporine.
The radioactivity (decompositions per minute) of the blank value (no use of test substance in the presence of staurosporine) is subtracted from all other radioactivity values. The controls (kinase activity without test substance) are set equal to 100 percent and all other radioactivity values (after subtracting the blank value) are expressed set in relation thereto (for example in % of the control).
IC50 values (50% inhibition) are determined with the aid of statistics programmes, such as, for example, RS1.

Row | inhibition of PDK1 (enzymatic), activity compared with the compounds according to the invention | Structure (SMILES)
6 | lower activity | COc1cccc(CNc2nnc(-c3c[nH]c4ncc(-c5cn[nH]c5)cc34)o2)c1 [Compound 90, (3-Methoxybenzyl)-{5-[5-(1H-pyrazol-4-yl)-1H-pyrrolo [2,3-b]pyridin-3-yl]-1,3,4-oxadiazol-2-yl}amine]
7 | lower activity | COc1cccc(CNc2nnc(-c3c[nH]c4ncccc34)o2)c1 [Compound 95, (3-Methoxybenzyl)-[5-(1H-pyrrolo-[2,3-b]pyridin-3-yl)-1,3,4-oxadiazol-2-yl]amine]
8 | lower activity | c1cncc(CNc2nnc(-c3c[nH]c4ncccc34)o2)c1 [Compound 88, Pyridin-3-ylmethyl-[5-(1H-pyrrolo-[2,3-b]pyridin-3-yl)-1,3,4-oxadiazol-2-yl]amine]
9 | lower activity | COc1cc(Nc2nnc(-c3c[nH]c4ncccc34)o2)cc(OC)c1 [Compound 89, (3,5-Dimethoxyphenyl)-[5-(1H-pyrrolo[2,3-b]pyridin-3-yl)-1,3,4-oxadiazol-2-yl]amine]
